Data taken from patent publication US11033473B2, “Hair restoration/growth stimulating agent” (Kinjirushi Co., Ltd., priority 2015, dated 2021).
Read-outs that look alike come from different tables or passages of the source.

Legend:
[1] = system: human hair follicle dermal papilla cells; test: Cytotoxicity test using human hair follicle dermal papilla cells; conditions: three-day culture; for concentration showing toxicity to human hair follicle dermal papilla cells: FIGS. 5-7
Method: (§2) Human hair follicle dermal papilla cells (Cat. No. CA60205a, Lot No. 2548, derived from person, distributed by Toyobo Co., Ltd.), which are widely used in efficacy evaluation of a hair restoration agent, were used as test cells. The human hair follicle dermal papilla cells were cultured in a carbon dioxide incubator (5% CO2, 37° C.) using a follicle dermal papilla cell proliferation medium (Cat. No. TMTPGM-250, distributed by Toyobo Co., Ltd.) A flask used for the culture was coated with collagen I before use. For cell passage, cells were separated from the flask using a follicle dermal papilla cell dedicated subculture set (Cat. No. CA090K, distributed by Toyobo Co., Ltd.)
(§3) The human hair follicle dermal papilla cells were seeded in a collagen I-coated 96-well plate at 5×10^3 cells/well (0.1 mL/well in this test). After one-day culturing (50% confluent) in the carbon dioxide incubator (5% CO2, 37° C.), the cells were transferred to a test medium containing isosaponarin, and then cultured for three days. Cell proliferation was compared using Living Cell Count Reagent SF (Cat. No. 07553, distributed by Nacalai Tesque, Inc.) In consideration of possible influence on absorbance by precipitates adhering to the cells in absorbance measurement in living cell count, the culture supernatant was removed after the end of the three-day culturing, and the cells were washed with a phosphate-buffered saline (PBS). After washing with PBS, 100pL per well of a medium containing 10% of Living Cell Count Reagent SF was added. Absorbance (measurement wavelength 450 nm, reference wavelength 595 nm) of the culture supernatant was measured 30 minutes and 90 minutes after the addition. An amount of change (ABS/hr) in absorbance ABS per hour was calculated from values at 90 minutes and 30 minutes. The experiment was carried out three times.

VEGF = VEGF production promoting action in human hair follicle dermal papilla cells (ELISA of culture supernatant); type: cell-based
Method: An amount of VEGF in a culture supernatant treated with isosaponarin for three days on human hair follicle dermal papilla cells was measured using ELISA kit for (product name: Human VEGF Quantikine ELISA, Cat. No. DVE00, distributed by R&D Systems, Inc.) The supernatant at the time of three-day culturing in the above section (1-3) was used as the culture supernatant treated with isosaponarin for three days. Specifically, in the above section (1-3), in order to measure absorbance, the culture supernatant was removed three days after addition of isosaponarin. In an evaluation test of VEGF production promoting action, the culture supernatant was collected three days after the addition of isosaponarin, and the supernatant was used as a sample. The experiment was carried out five times.
Hereinafter, a method of measuring VEGF will be described in detail. For the measurement of VEGF, the stock solution was used without diluting the supernatant.
Procedure 1-1. On the basis of a VEGF standard stock solution (2000 pg/mL), VEGF standard solutions of 1000, 500, 250, 125, 62.5, 31.2, and 15.6 pg/mL were prepared using a reaction buffer.
Procedure 1-2. Each of the VEGF standard solutions and 200 μL of sample (culture supernatant) were added to a VEGF immobilized microplate in which 50 μL of dilution was added to each well, and allowed to react at room temperature for 2 hours (primary reaction).
Procedure 1-3. The solutions in the wells were removed and the wells were washed 3 times with washing solution.
Procedure 1-4. 200 μL of horseradish peroxidase-conjugated VEGF antibody solution was added to each well and allowed to react for 2 hours at room temperature (secondary reaction).
Procedure 1-5. The solutions in the wells were removed and the wells were washed 3 times with the washing solution.
Procedure 1-6. 200 μL of substrate solution was added to each well and allowed to react for 20 minutes at room temperature.
Procedure 1-7. 50 μL of reaction stop solution was added to each well. After one minute mixing in a plate mixer, absorbance of each well was measured with a plate reader (measuring wavelength 450 nm).
Procedure 1-8. From a standard curve, VEGF concentration in the sample was calculated.
A non-addition control section was used as a comparison control section of isosaponarin.
As a positive control, the same experiment was performed to the case of adding minoxidil having final concentration of 30 μmol/L as well. A non-addition control section was used as a comparison control section of minoxidil.
(§1) Thereafter, the cells were cultured for three days, and proliferation of each cell is compared using Living Cell Count Reagent SF. The experiment was carried out five times. After three-days culturing was completed, supernatant liquid of the culture was collected and a VEGF production amount of the supernatant was measured by ELISA kit as in Example 2.

[2] = system: human hair follicle dermal papilla cells; test: Evaluation of human hair follicle dermal papilla cell-activating action (Living Cell Count Reagent SF, ABS/hr); type: cell-based; conditions: for cell-activating action vs 0.1% DMSO experimental section: 100 μmol/L
Method: After one-day culturing in the carbon dioxide incubator, the cells were transferred to a follicle dermal papilla cell proliferation medium in which isosaponarin was dissolved at final concentrations of 0.1 μmol/L, 10 μmol/L, and 1000 μmol/L. Then, the cells were cultured for one day and three days, and proliferation of each cell was compared using Living Cell Count Reagent SF. After the one-day and three-day culturing were completed, the supernatant culture was removed, and the cells were washed with PBS. After washing with PBS, a medium containing 10% Living Cell Count Reagent SF at 300 μL/well was added. The culture supernatant at 100 μL/well was transferred to another 96-well plate 30 and 90 minutes after the addition. Absorbance was measured at a microplate reader (measuring wavelength 450 nm, reference wavelength 595 nm). […] The experiment was carried out five times. A non-addition control section was used as a comparison control section of isosaponarin.
As a positive control, the same test was carried out also for the case of adding adenosine (Cat. No. 016-10493, distributed by Wako Pure Chemical Industries, Ltd.) at final concentration of 100 μmol/L and minoxidil (Cat. No. M4145-25MG, distributed by Sigma-Aldrich Japan Co., Ltd.) at final concentration of 30 μmol/L. Adenosine was dissolved in dimethyl sulfoxide (DMSO) and added to a test medium at final concentration of 0.1% DMSO. As a solvent control, 0.1% DMSO experimental section was provided. Minoxidil was dissolved in ethanol and added to a test medium at final concentration of 0.1% ethanol. […] Thus, a non-addition control section was used for a comparison control section of minoxidil.
Significance test was performed in the comparison experimental section. The test was carried out as Student T-test. It is determined that there is significance when P<0.05 (less than 5% if null hypothesis is true), as described in the figures.
A 100 mmol/L stock solution of adenosine (positive control substance) was prepared using DMSO as a solvent, and added to a test medium at final concentration of 100 μmol/L (0.1% DMSO experimental section was used as a solvent control). A 15 mmol/L stock solution of minoxidil was prepared with 50% ethanol, and added to a test medium at final concentration of 30 μmol/L. Since solvent (ethanol) concentration in this case is 0.2%, 0.2% ethanol experimental section was used as the control section.
Since the concentration of the solvent in the highest concentration of each test substance is 0.1% or less, it is determined that there is no influence of the solvent in the present test, and a non-addition control section was used as a reference in comparison of significant difference. The test was conducted as a Student T-test.
as §1
Further, the supernatant was removed. The cells were washed with PBS, and a medium containing 10% Living Cell Count Reagent SF (300 μL/well) was then added. 100 μL per well of the culture supernatant 30 and 90 minutes after the addition was transferred to another 96-well plate and absorbance was measured with a microplate reader (measuring wavelength 450 nm, reference wavelength 595 nm).

[3] = system: human hair follicle dermal papilla cells; test: as above; type: cell-based; conditions: Example 7, three days
FGF-7 gene = FGF-7 gene expression in human hair follicle dermal papilla cells (real-time PCR); type: cell-based; conditions: cultured for two hours
Method: Then, the cells are cultured for two hours, and total RNA was recovered and reverse transcribed into cDNA. Thereafter, FGF-7 gene expression was measured by real-time PCR. Using GAPDH gene as an internal reference, FGF-7 gene expression was calculated as a relative value of the negative control section. The experiment was carried out three times. Details of each procedure are shown below.
First, collection of total RNA from the cells and cDNA synthesis were carried out according to the steps of FastLane Cell RT-PCR kit.
Step 7-1. 500 μL per well of buffer FCW was added to the cells washed with PBS, and the buffer FCW was immediately removed and aspirated.
Step 7-2. 200 μL per well of the buffer FCP was added. After incubation for 5 minutes at room temperature (25° C.), FastLane lysate was transferred to a 96-well PCR tube. The tube was stored at −80° C. until the next cDNA synthesis.
Step 7-3. Lysate in Step 7-2 was dissolved at room temperature. 2 μL of gDNA Wipeout Buffer, 1μL of FastLane lysate and 11 μL of RNase-free water were added to a new PCR tube, caused to react for 5 minutes at 42° C., and then transferred immediately to ice. (In fact, an appropriate amount of master mix of gDNA Wipeout Buffer and RNase-free water was added to the tube containing lysate.)
Step 7-4. 6 μL of the reverse transcription reaction master mix was added to 14 μL of reaction solution obtained in Step 7-3 and incubated for 30 minutes at 42° C. (1 μL of Quantiscript Reverse Transcriptase, 4 μL of Quantiscript RT Buffer, 1 μL of RT Primer Mix/tube).
Step 7-5. The reaction solution was treated for 3 minutes at 95° C., to inactivate the reverse transcriptase. […]
The relative expression level of each gene was calculated as follows. From an intersection of an amplification curve of each gene and a threshold line of each gene, a Ct value (the number of PCR cycles) was calculated. ΔCt value is obtained by subtracting a Ct value of the internal reference GAPDH gene from a Ct value of the target gene (Ct values (target gene)−Ct (GAPDH2)=ΔCt value). […]

[4] = system: human hair follicle dermal papilla cells
Method: as §2, §3

[5] = Example 7, 0.1 μmol/L, three days

## O=c1cc(-c2ccc(O[C@@H]3O[C@H](CO)[C@@H](O)[C@H](O)[C@H]3O)cc2)oc2cc(O)c([C@@H]3O[C@H](CO)[C@@H](O)[C@H](O)[C@H]3O)c(O)c12 [isosaponarin, 4′-(β-D-glucopyranosyloxy)-5,7-dihydroxy-6-β-D-glucopyranosylflavone]
[1]; FIG. 1
  concentration showing no toxicity to human hair follicle dermal papilla cells: ≤ 1000 µM
VEGF; Example 2, 1000 μmol/L, treated for three days, FIG. 4
  amount of VEGF vs non-addition control section: significantly increased
[2]; Example 1, 0.1 μmol/L to 1000 μmol/L, one-day processing period, FIG. 2
  cell-activating action vs non-addition control section: slightly more significant cell-activating action
[2]; Example 1, 0.1 μmol/L to 1000 μmol/L, three-day processing period, FIG. 3
  cell-activating action vs non-addition control section: more significant cell-activating action
[2]; Example 1, three-day processing period, minoxidil 30 μmol/L
  cell-activating action relative to the action in the case of treating with minoxidil: about three times

## O=c1cc(-c2ccc(O)cc2)oc2cc(O)cc(O)c12 [apigenin, 2-(4-hydroxyphenyl)-5-hydroxy-7-hydroxy-4H-1-benzopyran-4-one]
[1]
  concentration showing toxicity to human hair follicle dermal papilla cells: ≥ 80 µM
VEGF; Example 7, 0.001 μmol/L to 0.01 μmol/L, three days, FIG. 9
  amount of VEGF vs non-addition control section: increased more significantly
VEGF; [5]
  amount of VEGF vs non-addition control section: no significance
[3]; 0.001 μmol/L to 1 μmol/L, FIG. 8
  cell-activating action vs non-addition control section: more significant cell-activating action
[3]; 10 μmol/L
  cell-activating action vs non-addition control section: no significance

## Nc1cc(N2CCCCC2)nc(N)[n+]1[O-] [minoxidil, 6-(1-piperidinyl)-2,4-pyrimidinediamine-3-oxide, reference compound]
VEGF; Example 2, 30 μmol/L, treated for three days, FIG. 4
  amount of VEGF vs non-addition control section: significantly increased
VEGF; Example 7, 30 μmol/L, three days, FIG. 9
  amount of VEGF vs 0.2% ethanol experimental section: more significantly increased
[3]; 30 μmol/L, FIG. 8
  cell-activating action vs 0.2% ethanol experimental section: more significant cell-activating action
[2]; Example 1, 30 μmol/L, one-day processing period
  cell-activating action vs non-addition control section: slightly more significant cell-activating action
[2]; Example 1, 30 μmol/L, three-day processing period
  cell-activating action vs non-addition control section: more significant cell-activating action

## COC(=O)/C=C/c1ccc(O)c(O)c1 [caffeic acid methyl ester]
[1]
  concentration showing toxicity to human hair follicle dermal papilla cells: ≥ 16 µM
VEGF; [5]
  amount of VEGF vs non-addition control section: did not show any significance
VEGF; Example 7, 1 μmol/L, three days, FIG. 9
  amount of VEGF vs non-addition control section: increased more significantly
VEGF; Example 7, 10 μmol/L, three days
  amount of VEGF vs non-addition control section: did not show any significance

## Nc1ncnc2c1ncn2[C@@H]1O[C@H](CO)[C@@H](O)[C@H]1O [adenosine, reference compound]
FGF-7 gene; 100 μmol/L, FIG. 10
  FGF-7 gene expression vs 0.1% DMSO experimental section: more significantly elevated FGF-7 gene expression
VEGF; Example 7, 100 μmol/L, three days, FIG. 9
  amount of VEGF vs 0.1% DMSO experimental section: significantly increased the amount of VEGF on human hair follicle dermal papilla cell slightly more
[2]; Example 1, three-day processing period
  cell-activating action vs 0.1% DMSO experimental section: more significant cell-activating action
[2]; Example 7, three days, FIG. 8
  cell-activating action vs 0.1% DMSO experimental section: more significant cell-activating action

## coumaric acid
FGF-7 gene; 0.001 μmol/L, FIG. 10
  FGF-7 gene expression vs non-addition control section: more significantly elevated
FGF-7 gene; 0.01 μmol/L
  FGF-7 gene expression vs non-addition control section: did not show any significance
[3]; 0.01 μmol/L
  cell-activating action vs non-addition control section: did not show significance
[3]; 0.1 μmol/L, FIG. 8
  cell-activating action vs non-addition control section: more significant cell-activating action
[3]; 10 μmol/L
  cell-activating action vs non-addition control section: did not show significance
[4]
  concentration showing toxicity to human hair follicle dermal papilla cells: ≥ 2000 µM
